Test [1] relates to Smad2 targets (MMP2, Goosecoid, Furin, MixL). As to the kind of experiment: RT-PCR/qPCR of Smad2 responsive genes in AKR-2B cells. The class given is cell-based. The note with it: 5 ng/mL TGFβ, 24 hours. As for the experimental part:
FIGS. 2A-C. TAT-SH3 inhibits Smad3-dependent responses. (A) AKR-2B cells were transiently transfected with a Smad3 (3TP), Smad2 (ARE), or Smad1/5/8 (BRE) reporter construct, and luciferase activity determined following 12 hours incubation in the absence (−) or presence (+) of the indicated ligand (5 ng/mL TGFβ; 10 ng/mL BMP4) or TAT-SNX9(SH3) fusion polypeptide (1.5 μM). Data represent the mean+/−SEM of three experiments. (B) RT-PCR analysis of Smad3 (PAI-1 and CTGF) and Smad2 (MMP2) responsive gene following 24 hour treatment of AKR-2B cells with the indicated concentration of TAT-SNX9(SH3) fusion polypeptide or 5 ng/mL TGFβ. Loading was verified by GAPDH expression. (C) Soft agar colony formation was performed following seven days growth in the presence (+) or absence (−) of TGFβ (10 ng/mL) or the indicated TAT-SNX9(SH3) fusion polypeptide (1.5 μM). […]
FIGS. 3A-E. Inhibition of Smad3 signaling by a defined region of the SH3 domain in SNX9. […] (B) Nuclear fractions were prepared and assessed as in FIG. 1B following transduction with the indicated TAT-SNX9(SH3) fusion polypeptide (Left). Quantitation (mean+/−sd) of nuclear pSmad2 or pSmad3 from 2 experiments (Right). (C) Immunofluorescence of nuclear Smad3 was determined as in FIG. 1C from 30 cells in each of two experiments in the absence (−) or presence (+) of 5 ng/mL TGFβ and the indicated TAT-SNX9(SH3) fusion polypeptide (1.5 μM). […]

For another test, the target named is T1, pSmad3 (Mus musculus, UniProt Q8BUN5).
T1 construct: endogenous in cells; host or cells: AKR-2B cells
As to the kind of experiment: His pull down of pSmad3 by TAT-SNX9(SH3) fusion polypeptides. The format is binding. The note with it: lysates of TGFβ treated AKR-2B cultures. As to the method:
FIGS. 3A-E. Inhibition of Smad3 signaling by a defined region of the SH3 domain in SNX9. (A) Cartoon depicting constructs used for His pull down assays. AKR-2B lysates were incubated with the indicated TAT-SNX9(SH3) fusion polypeptide and immunoblotted for bound pSmad3 or total TAT-SNX9(SH3) fusion polypeptide (His). (B) Nuclear fractions were prepared and assessed as in FIG. 1B following transduction with the indicated TAT-SNX9(SH3) fusion polypeptide (Left). Quantitation (mean+/−sd) of nuclear pSmad2 or pSmad3 from 2 experiments (Right). (C) Immunofluorescence of nuclear Smad3 was determined as in FIG. 1C from 30 cells in each of two experiments in the absence (−) or presence (+) of 5 ng/mL TGFβ and the indicated TAT-SNX9(SH3) fusion polypeptide (1.5 μM). […]
FIGS. 4A-E. A point mutant of TAT-SH3-2 abolishes the inhibitory action on Smad3 responses. […] (E) AKR-2B cells were transiently transfected with a BMP (BRE), EGF (SRE), or PDGF (MMP-1) reporter construct and luciferase activity determined following 12 hour incubation in the absence (−) or presence (+) of the indicated ligand (10 ng/mL BMP4, EGF, or PDGF), inhibitor (10 μM Dorsomophin; 3 μM Lapatinib; 2 μM CP868) or TAT-SNX9(SH3) fusion polypeptide (1.5 μM). […]

The values that follow come from patent US10144929B2, “Polypeptide inhibitors of Smad3 polypeptide activities” (Mayo Foundation for Medical Education and Research, priority 2016, dated 2018).

T1 sequence (Q8BUN5 whole entry): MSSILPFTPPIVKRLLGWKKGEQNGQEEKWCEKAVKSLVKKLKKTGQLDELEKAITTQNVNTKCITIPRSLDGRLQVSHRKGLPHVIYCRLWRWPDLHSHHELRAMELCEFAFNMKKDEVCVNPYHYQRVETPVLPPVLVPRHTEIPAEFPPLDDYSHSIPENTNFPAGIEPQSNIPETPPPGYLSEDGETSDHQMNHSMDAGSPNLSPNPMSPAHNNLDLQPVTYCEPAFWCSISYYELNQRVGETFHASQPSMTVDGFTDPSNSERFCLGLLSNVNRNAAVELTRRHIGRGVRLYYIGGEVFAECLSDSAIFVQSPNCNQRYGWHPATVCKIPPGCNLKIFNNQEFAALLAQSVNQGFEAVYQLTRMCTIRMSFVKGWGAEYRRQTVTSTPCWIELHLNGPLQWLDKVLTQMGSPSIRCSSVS

For “TAT-SH3-2M: TAT-SH3-2 with G to V point mutations at amino acids 36-38; inactive TAT-SNX9 peptide unable to bind pSmad3 (TVNEGEIITITNPDVVVVWLEGRNIKGERGL; left off: small tags and cut ends)”, the “induction of Smad2 targets” value in test [1] is “Neither polypeptide impacted the induction of Smad2 targets”. Moreover, in the test with pSmad3, the pSmad3 binding result is “unable to bind pSmad3”.
The matching figures for “TAT-SH3-2: TAT-SNX9(SH3) fusion polypeptide having SNX9 amino acids 21-51 (31 mer) (TVNEGEIITITNPDVGGGWLEGRNIKGERGL; left off: small tags and cut ends)”: “Neither polypeptide impacted the induction of Smad2 targets” and “bound pSmad3 to a similar degree as a TAT-SNX9(SH3) fusion polypeptide having the full length SH3 domain”.
